Source: patent EP0191520A1, “(1-phenylmethyl-5-hydroxy-1H-indazol-3-yl)-oxyacetic acid and salts thereof for use as a medicament, and pharmaceutical compositions containing them” (AZIENDE CHIMICHE RIUNITE ANGELINI FRANCESCO A.C.R.A.F. …, priority 1985, dated 1986)
Where two headings read alike, the source gives them in different places.

Tests used:
[1] = target: T1, albumin of beef serum (Bos taurus, UniProt P02769); assay: protective effect on protein denaturation from UV rays (method of Silvestrini et al.); assay type: biochemical; settings: for inhibition at 50 µM: molar conc. .00005; for inhibition at 200 µM: molar conc. .0002
T1 construct: albumin of beef serum; from tissue; host or cells: beef serum
Procedure: The Compounds of formulas I and II were tested under experimental conditions designed to show the protective effect on protein denaturation from UV rays according to the method of Silvestrini et al. (Int. J. Tiss. Reac. 5, 217-225, 1983) which comprises the measurement of the protective action of the compound under examination on the denaturation of the albumin of beef serum submitted to UV rays for 30 minutes.

[2] = test system: bilateral senile cataract; assay: preliminary tests on man: cataract therapy for three months, oral or topical; assay type: in vivo; settings: 10 patients
Procedure: Preliminary tests on man confirmed the action of Compound II in cataract therapy.
Two groups of 10 patients afflicted by bilateral senile cataract with cortical or subcapsular or cortinuclear localization, in the initial evolutive stage, without fundus alterations and with a distant visus from 5 to 9 tenths (after correction of any refraction error) were treated for three months with Compound II orally (100 mg tablet; 1 tablet, three times a day) and topically (0.1% collyrium; 1 drop in the conjunctival sac of each eye three times a day) respectively.
The effect of the treatment was evaluated by monitoring the variations in the visus, in the refraction error, and in lenticular opacity (by biomicroscopy with a slit lamp and by ophthalmoscopy).

[3] = orally, 100 mg tablet three times a day
[4] = topically, 0.1% collyrium, 1 drop in each eye three times a day
[5] = UV rays for 30 minutes, read-out: % INHIBITION MEAN
[6] = single determinations, UV rays for 30 minutes, read-out: % INHIBITION

T1 sequence (P02769 25-607): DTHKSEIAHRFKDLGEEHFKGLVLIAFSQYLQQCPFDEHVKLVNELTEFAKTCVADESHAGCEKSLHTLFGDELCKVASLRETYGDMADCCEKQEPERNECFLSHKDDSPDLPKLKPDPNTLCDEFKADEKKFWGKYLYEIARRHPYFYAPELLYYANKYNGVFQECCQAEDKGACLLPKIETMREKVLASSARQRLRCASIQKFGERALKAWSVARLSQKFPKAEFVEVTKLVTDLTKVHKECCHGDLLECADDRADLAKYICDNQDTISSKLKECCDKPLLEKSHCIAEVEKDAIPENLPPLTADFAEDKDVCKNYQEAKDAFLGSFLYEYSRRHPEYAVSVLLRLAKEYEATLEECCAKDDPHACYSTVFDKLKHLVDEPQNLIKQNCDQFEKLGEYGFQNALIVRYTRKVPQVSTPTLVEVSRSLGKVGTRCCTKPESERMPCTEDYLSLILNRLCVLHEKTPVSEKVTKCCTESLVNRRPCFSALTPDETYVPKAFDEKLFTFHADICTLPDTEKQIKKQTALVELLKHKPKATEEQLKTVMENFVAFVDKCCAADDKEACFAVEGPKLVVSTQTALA

O=C(O)COc1nn(Cc2ccccc2)c2ccccc12 [Compound I, bendazac lysinate, reference compound]
inhibition at 250 µM ([1]; molar conc. .00025, UV rays for 30 minutes): 12%
inhibition at 500 µM ([1]; molar conc. .0005, UV rays for 30 minutes): 21%
inhibition at 1000 µM ([1]; molar conc. .001, UV rays for 30 minutes): 42%
inhibition at 2000 µM ([1]; molar conc. .002, UV rays for 30 minutes): 61%

O=C(O)COc1nn(Cc2ccccc2)c2ccc(O)cc12 [Compound II, (5-hydroxy-1-benzyl)-indazolyl-3-oxyacetic acid]
opacity decreased [2, 3]: 6 eyes
opacity increased [2, 3]: 1 eye
opacity remained unchanged [2, 3]: 13 eyes
overall clinical judgement: patients improved [2, 3]: 7 patients
overall clinical judgement: remained unchanged [2, 3]: 2 patients
overall clinical judgement: worsened slightly [2, 3]: one
overall clinical judgement: patients improved greatly ([2]; orally, 100 mg tablet three times a day, part of the 7 improved): 4 patients
mean visus value increased ([2]; orally, 100 mg tablet three times a day, t = 3.58, P < 0.01): 16.79%
opacity decreased [2, 4]: 7 eyes
opacity increased [2, 4]: 2 eyes
opacity remained unchanged [2, 4]: 11 eyes
overall clinical judgement: patients improved [2, 4]: 4 patients
overall clinical judgement: remained unchanged [2, 4]: 5 patients
overall clinical judgement: worsened [2, 4]: one
mean visus value increased ([2]; topically, 0.1% collyrium, 1 drop in each eye three times a day, t = 2.54, P < 0.05): 12.78%
inhibition at 50 µM [1, 5]: 10%
inhibition at 50 µM [1, 6]: 8 to 13%
inhibition at 100 µM ([1]; molar conc. .0001, UV rays for 30 minutes): 77%
inhibition at 200 µM [1, 5]: 92%
inhibition at 200 µM [1, 6]: 85 to 100%
times as active as Compound I ([1]; relative activity versus Compound I in this test): at least 10 times
